Data taken from patent US20220090209A1, “RETROTRANSPOSON BIOMARKERS” (VIB VZW, priority 2019, published 2022).

Experiments:
[1] = test system: MCF7 cells; test: DNA methylation in aza-treated MCF7 cells (LC-ESI-MS/MS of 5mC, BS-seq); format: cell-based, human
[2] = test system: MCF7 cells; test: Retrotransposon expression by mRNA-seq and RepEnrich in MCF7 cells; format: cell-based, human
Method: (§1) Where indicated, cells were pre-treated with 5-aza-2′-deoxycytidine (aza, 1 μM) for 3 days by adding the correct volume to fresh culture medium while using an equal volume of the carrier (DMSO) as control. This was followed by another day of exposure to aza in hypoxia or normoxia, bringing the total aza exposure time for experiments to 4 days. 2 mM of DMOG (dimethyloxalylglycine, Sigma) was added to culture medium for 24 hours where indicated.
(§2) mRNA capture and stranded library preparation of RNA from MCF7 cells, mouse cell lines and tumours for the purpose of retrotransposon expression analysis was performed using the KAPA Stranded mRNA-Seq Kit (Illumina) according to the provided protocol.
(§3) RNA-seq data were expressed in transcript per million (TPM), 0.01 offset. Expression read counts of retrotransposons are calculated using the RepEnrich tool (https://github.com/nerettilab/RepEnrich), and normalized to the total mappable read depth. The repeat genome of the human reference genome hg19 was download from the RepEnrich website. Human retrotransposon classes (LINE, SINE, LTR) contain 16 families and 779 subfamilies. The repeat genome of the mouse genome mm10 was built using the repeat masker track from the UCSC genome browser. Mouse retrotransposon classes (LINE, SINE, LTR) contain 24 families and 906 subfamilies.

[3] = test system: HIF1B-knockout MCF7 cells; test: Retrotransposon expression by mRNA-seq and RepEnrich in HIF1B-knockout MCF7 cells; format: cell-based, human
Method: MCF7, RCC4, SK-MEL-28, A549, 4T1, MC38 and CT26 cell lines were obtained from the American Type Culture Collection and their identity was not further authenticated. These are not listed in the database of commonly misidentified cell lines maintained by ICLAC. MCF7 HIF1B-knockout cells were previously described (Ahmed et al. 2013, Toxicol Sci 138:89-103). MCF7, RCC4, A549, MC38 and 4T1 cells were cultured at 37° C. in Dulbecco's modified Eagle medium (DMEM) with 10% fetal bovine serum (FBS), 5 mL of 100 U/mL Penicillin-Streptomycin (Pen Strep, Life Technologies) and 5 mL of L-Glutamine 200 mM. SK-MEL-28 and CT26 cell lines were cultured at 37° C. in Roswell Park Memorial Institute 1640 Medium (RPMI) with 10% FBS 1% Penicillin-Streptomycin and 1% L-Glutamine.
Where indicated, cells were pre-treated with 5-aza-2′-deoxycytidine (aza, 1 μM) for 3 days by adding the correct volume to fresh culture medium while using an equal volume of the carrier (DMSO) as control. This was followed by another day of exposure to aza in hypoxia or normoxia, bringing the total aza exposure time for experiments to 4 days. […]
RNA-seq data were expressed in transcript per million (TPM), 0.01 offset. Expression read counts of retrotransposons are calculated using the RepEnrich tool (https://github.com/nerettilab/RepEnrich), and normalized to the total mappable read depth. […]

[4] = test system: 4T1 tumours; test: Growth of orthotopic 4T1 tumours in mice; format: in vivo, mouse; conditions: aza versus vehicle, P=3.0×10^-3
Method: (§4) All the experimental procedures were approved by the Institutional Animal Care and Research Advisory Committee of the KU Leuven. 1×10^6 4T1 cells, Hif1b-knockout or wild-type (scramble), were injected orthotopically in the mammary gland of 10 weeks old Balb/c mice, and 1×10^6 CT26 or MC38 cells were injected subcutaneously in 10 weeks old Balb/c or C57BL/6J mice, respectively. When the tumour was palpable (starting volume 100 mm^3), the mice were injected intraperitoneally with 0.8 mg/kg of 5-aza-2′-deoxycytidine (aza) or PBS, 40 mg/kg DC101 antibody (BE0089, InVivoMab) or IgG (BE0060, InVivoMab) or 10 mg/kg anti-PD1 antibody (6E0146, InVivoMab) or IgG antibody (BE0089, InVivoMab) according to the following schedules: DC101 three times per week; anti-PD1 every other day, starting when the tumour size was around 200 mm^3; aza was administered in 2 cycles with 2-days rest in between until the control tumours reached the endpoint. Tumour volumes were monitored every two to three days by a calliper, and mice were culled before tumour volumes exceeded 2,000 mm^3. When over 20% of mice were culled, the experiment was terminated (all arms). In vivo experiments in 4T1, CT26 and MC38 treated with aza or anti-PD1 antibody were performed three times, with at least 6 mice per treatment group in each experiment.

[5] = test system: 4T1 cells; test: Retrotransposon expression in 4T1 cells in vitro; format: cell-based, mouse
Method: as §1, §2, §3

[6] = test system: 4T1 tumours; test: RNA-seq of 4T1 tumours from treated mice (retrotransposon expression, immune signatures); format: in vivo, mouse
Method: as §2, §3, §4

[7] = test system: 4T1 tumours; test: Immunofluorescence of 4T1 tumours (CD31, pimonidazole, CD8, granzyme B); format: in vivo, mouse; conditions: aza versus vehicle
Method: as §4, with “experiment. […]” for “experiment.”

[8] = test system: 4T1^Hif1b-scr grafts; test: 4T1 Hif1b-scr (scramble-control) grafts in mice treated with aza or vehicle; format: in vivo, mouse
Description: (§5) Four gRNAs targeting two different exons in the Hif1b locus of the mouse genome and one non-targeting gRNA (scramble) were designed with the appropriate restriction sites for the receiver plasmid using the online Crispor tool (http://crispor.tefor.net). Oligonucleotides corresponding to gRNAs were synthesized by IDT, and forward and reverse oligonucleotides were annealed in the CutSmart buffer (B7240S, NEB) before cloning into the LentiGuide-Puro plasmid (Plasmid 52963, Addgene). Positive colonies were screened by PCR and validated by Sanger sequencing. LentiGuide-Puro plasmids containing GFP was used as positive control to evaluate the transfection- and transduction-efficacy.
(§6) 4T1 cells were transduced with a lentiviral vector expressing a doxycycline inducible Cas9 nuclease (Cat #CAS11229, Dharmacon) for a tight regulation of the Cas9 expression and gene editing. An infection rate of 30% was used to ensure that the majority of transduced cells harbour a single copy of the vector. These 4T1 cells were always kept in selection medium containing 10 μg/mL of blasticidin (ant-bl-05, Invivogen). When reaching 70% confluency, cells were transduced with one titer of virus. After 24h, the virus was removed and transduction efficacy evaluated based on GFP expression. After 48h, puromycin (P9620, Sigma-Aldrich) 1.5 μg/mL medium was added to the medium. Cells were kept in the presence of blasticidin and puromycin for the remaining experimental procedures. After 3-5 days, Cas9 expression was induced by adding […] (D2975000, Sigma-Aldrich) 0.5 μg/mL medium for 3 days. Cells were kept one day without […] before injection in the mice or further experimental procedures. 4T1 cells transduced with the four gRNAs targeting Hif1b were expanded and proteins were extracted to test the efficacy of the knockout by western blot. […]
(§7) All the experimental procedures were approved by the Institutional Animal Care and Research Advisory Committee of the KU Leuven. […] Tumour volumes were monitored every two to three days by a calliper, and mice were culled before tumour volumes exceeded 2,000 mm^3. […]

[9] = test system: 4T1^Hif1b-KO grafts; test: 4T1 Hif1b-KO grafts in mice treated with aza or vehicle; format: in vivo, mouse
Description: as §5, §6, §7

[10] = test system: HIF1β binding peaks in MCF7 cells; test: HIF1β ChIP-seq in hypoxic vehicle- and aza-treated MCF7 cells
[11] = aza versus PBS, GSVA on immune metagenes

Structure (SMILES): Nc1ncn([C@H]2C[C@H](O)[C@@H](CO)O2)c(=O)n1 [aza, 5-aza-2′-deoxycytidine]
- overall reduction of DNA methylation ([1]; MCF7 cells pharmacologically demethylated with aza (1 μM, 4 days)): 70.5±5.5%
- reduced methylation at new HIF1β binding sites in aza-treated cells ([1]; aza-treated versus untreated MCF7 cells): 2.5 fold
- increase in expression of the 176 retrotransposon subfamilies bound by HIF1β ([2]; aza alone): 23%
- expression of the 59 retrotransposons correlated with cytolytic activity ([2]; aza-treated MCF7 cells, P<0.05): upregulated
- average increase in retrotransposon expression ([2]; combined aza and chronic (4-day) hypoxia): 45%
- increase in expression of the 176 retrotransposon subfamilies bound by HIF1β ([2]; combined aza and hypoxia (24 hours, 0.5% O2)): 27%
- retrotransposon overexpression (increase) ([3]; aza alone): 25%
- retrotransposon overexpression (increase) ([3]; aza in hypoxia): 20%
- change in tumour growth [4]: −32%
- retrotransposon expression [5]: increase
- activated T cell and natural killer cell signatures [6, 11]: upregulated
- myeloid-derived suppressor cell signatures [6, 11]: downregulated
- cell proliferation marker expression ([6]; aza versus vehicle): did not reduce
- retrotransposon expression ([6]; in vivo, aza versus vehicle): increased
- increase in number of activated, granzyme B-positive T cells ([7]; P<0.05): 2.1 fold
- T-cell infiltration ([7]; immunofluorescence of CD8+ T cells): unaffected
- cancer testis antigen expression ([8]; aza treatment): significant upregulation
- graft size ([8]; aza versus vehicle, P=0.021): significantly reduced size
- number of activated T cells ([8]; following aza): increased
- cancer testis antigen expression ([9]; aza treatment): significant upregulation
- graft size ([9]; aza versus vehicle, P=0.21): failed to show this reduction
- number of activated T cells ([9]; following aza): failed to show such increase
- new HIF1β binding peaks exposed ([10]; HIF1β ChIP-seq, hypoxia 0.5% O2 16 hours): 1,236
- fraction of aza-specific HIF1β binding peaks in retrotransposons ([10]; versus 4.1% in vehicle-treated MCF7 cells): 8.1%
- enrichment of novel aza-specific HIF1β binding peaks for retrotransposons ([10]; versus peaks in vehicle-treated MCF7 cells): 2 fold
